In article PMC7822874, “Chemoprotective antimalarials identified through quantitative high-throughput screening of Plasmodium blood and liver stage parasites” (Scientific Reports, 2021):
Like-named read-outs stand apart in the source and are kept apart here.

Assays:
[1] = test system: P. berghei-ANKA-GFP-LucCON liver stage parasites in HepG2-A16-CD81EGFP cells; assay: P. berghei liver stage Pb-Luc assay, Method 1 (UCSD, 1536-well); format: cell-based, Plasmodium berghei; settings: Method 1
[2] = test system: Plasmodium falciparum Dd2 asexual blood stage parasites; assay: microbe, parasite or virus in culture; set-up: species or system Plasmodium falciparum Dd2 in human erythrocytes; single determination (one 11-point concentration-response curve); settings: Plasmodium falciparum, DD2, Erythrocyte, 72 h
HepG2 = settings: human, hepg2 cells, 48 h
in vitro = settings: human, hepg2 cells

| Structure (SMILES) | AC50 ([2]; read-out: AC50) [µM] | Log AC50 (M) (HepG2) | CC50 at 48 h (in vitro) [µM] | also measured |
| --- | --- | --- | --- | --- |
| C/C(=N\NC(=O)c1cccc(Br)c1)c1ccccn1 [MLS001232242-01] | 4.73 | -5.8643 | 1.37 | Max Resp (signal direction of the dose response) ([1]; Decrease = decreasing P. berghei viability with dose, Increase = increasing signal, Inactive = no dose response): Decrease; AC50 ([1]; Hill fit, 50% of maximum activity response, read-out: AC50): 0.891 µM; Log AC50 (M) ([1]; log10 of molar AC50 from Hill fit): -6.050 M; AC50 ([1]; Plasmodium berghei, Hill fit, 50% of maximum activity response, read-out: AC50): 0.794 µM; AC50 ([1]; Plasmodium berghei, log10 of molar AC50 from Hill fit, read-out: Log AC50 (converted)): 0.794 µM |
| Cc1ccc(CNCc2cc3c(C(C)(C)C)nn(-c4ccccc4)c3[nH]c2=O)cc1 [MLS000067257-01] | 0.266 | -4.3643 | 43.2 |  |
| O=C(Nc1ccc([N+](=O)[O-])cc1)Nc1ccc(OC(F)F)c(Cl)c1 [MLS000581434-01] | 2.66 | -4.5143 | 30.6 |  |
| O=C(Nc1ccc(Nc2ccncc2)cc1)c1ccc(Nc2ccnc3ccc([N+](=O)[O-])cc23)cc1[N+](=O)[O-] [MLS000756458-01] |  | -4.5643 | 27.3 | AC50 [2]: 1.33 µM |
| CC(C)(C)CC(C)(C)c1ccc(O)c(Cc2ccc(Cl)cc2Cl)c1 [NCGC00095016-01] | 1.68 | -4.6643 | 21.7 |  |
| COc1ccccc1-c1ccc(CN2CCCC(c3nc4ccc(F)cc4c(=O)[nH]3)C2)cc1 (centres unmarked) [NCGC00377223-02] | 8.41 | -4.3643 | 43.2 |  |
| O=C1NCN(c2ccccc2)C12CCN(CCCC(c1ccc(F)cc1)c1ccc(F)cc1)CC2 [NCGC00015424-04] | 5.31 | -4.3643 | 43.2 |  |
| CCCN1CCN(CCCNC(=O)c2ccc3c(c2)sc2nc(-c4ccc(OCC)cc4)cn23)CC1 [NCGC00113254-01] | 4.22 | -4.6143 | 24.3 |  |
| Cc1ccc(C)c(N2CCN(CCCNC(=O)c3cnn(-c4ccc(F)cc4)c3C3CCN(C(=O)OC(C)(C)C)CC3)CC2)c1 [NCGC00126698-01] | 2.66 | -4.3643 | 43.2 |  |
| O=C(Nc1nnc(SCc2ccc(F)cc2)s1)c1ccccn1 [MLS001003501-01] | 8.41 | -4.9643 | 10.9 |  |
| O[C@H]1[C@H](NCC2CCCCC2)[C@H]2CO[C@H](O2)[C@@H]1N1CCC(Cc2ccccc2)CC1 [NCGC00394729-01] | 1.37 | -4.3028 | 49.8 |  |
| CCCCN(C)CCCNC(=O)Cn1ncc2c3ccccc3n(Cc3cc(C)ccc3C)c2c1=O [NCGC00114267-01] | 0.75 | -4.4643 | 34.3 |  |
| COc1ccc(C2=CC(c3ccc(F)cc3)n3ncc(C(=O)Nc4ccc(C)cc4)c3N2)cc1 (centres unmarked) [NCGC00127228-01] | 2.37 | -4.5143 | 30.6 |  |
| COC(=O)C1=C(C)NC(C)=C(C(=O)OCCCN2CCC(c3ccccc3)(c3ccccc3)CC2)C1c1cccc([N+](=O)[O-])c1.Cl (centres unmarked) [NCGC00163135-01] |  | -4.3643 | 43.2 | AC50 [2]: 2.99 µM |
| Cc1ccc2nc(C)cc(Nc3ccc([N+](=O)[O-])cc3)c2c1 [MLS000710716-01] | 6.68 | -4.3643 | 43.2 |  |
| Cc1cc(NC2CCCCC2)nc(NCc2ccccc2)n1 [MLS000555549-01] | 16.8 | -4.4643 | 34.3 |  |
| Cc1nc(-c2ccccc2)cc([C@H]2CN3CC[C@H]2C[C@@H]3CN(Cc2ccco2)Cc2ccco2)n1 [NCGC00392555-01] | 2.99 | -4.5143 | 30.6 |  |
| COC(=O)C1=C(C)NC(C)=C(C(=O)OC(C)(C)CN(C)CCC(c2ccccc2)c2ccccc2)C1c1cccc([N+](=O)[O-])c1.Cl (centres unmarked) [NCGC00167492-01] | 2.99 | -4.6143 | 24.3 |  |
| Cc1ccc([S+](=O)([O-])NC[C@H]2C[C@@H]3CC[N@]2C[C@@H]3CN2CCc3ccccc32)cc1 [NCGC00421178-01] |  | -4.2528 | 55.9 | AC50 [2]: 13.7 µM |

| Structure (SMILES) | AC50 ([2]; read-out: AC50) [µM] | Log AC50 (M) (HepG2) | CC50 at 48 h (in vitro) [µM] | also measured |
| --- | --- | --- | --- | --- |
| Cc1cc(OCCn2cc(C(=O)c3ccco3)c3ccccc32)ccc1Cl [NCGC00101880-01] | 5.31 | -4.8143 | 15.3 |  |
| CC1CCCN(Cc2c(O)ccc3c4c(c(=O)oc23)CCCC4)C1 (centres unmarked) [MLS000778333-01] | 6.68 | -4.9143 | 12.2 |  |
| CCN(CC)CCn1c(=N)n(CC(O)COc2ccccc2C)c2ccccc21 (centres unmarked) [NCGC00101835-01] | 3.35 | -4.5643 | 27.3 |  |
| COc1ccc(NC(=O)c2ccc(Cl)c(S(=O)(=O)N3CCc4ccccc4C3)c2)cn1 [MLS000057537-01] | 7.5 | -4.4643 | 34.3 |  |
| CCN(CC)CCOC(=O)c1ccc(NC(=O)c2cc3c(=O)n(CC)c4ccccc4c3s2)cc1 [NCGC00110417-01] | 2.66 | -4.3143 | 48.5 |  |
| COc1ccc(/C=N/Nc2nc(Nc3ccccc3)nc(N3CCCC3)n2)cc1[N+](=O)[O-] [MLS000723644-01] | 6.68 | -4.5643 | 27.3 |  |
| Cc1nc(-c2ccccn2)nc(N(C)c2ccccc2)c1Cl [MLS001182279-01] | 5.31 | -4.8143 | 15.3 |  |
| CCCCN(CC)CCCNC(=O)c1ccc2c(c1)N(Cc1ccc(C)cc1)C(=O)c1ccccc1S2 [NCGC00139764-01] | 1.88 | -4.3643 | 43.2 |  |
| COc1cc2c(Nc3ccc(Br)cc3F)ncnc2cc1OCC1CCN(C)CC1 [NCGC00167513-01] | 5.96 | -4.5643 | 27.3 |  |
| Cc1cc(Nc2ccc(Cl)cc2)nc(NCc2ccccc2)n1 [MLS000591025-01] | 0.422 | -4.3643 | 43.2 |  |
| CCCC1=Nc2cc(C(=O)NCCCN3CCCCC3CC)ccc2Sc2ccc(C)cc21 (centres unmarked) [NCGC00424661-01] | 9.44 | -4.3643 | 43.2 |  |
| Cc1cc(NCc2ccccn2)n2nc(C)c(-c3ccccc3)c2n1 [MLS000559925-01] | 13.3 | -5.9643 | 1.09 |  |
| CCN1CCN(c2cc(C)c3cc(NC(=O)/C=C/c4ccc(C)cc4)ccc3n2)CC1 [NCGC00103850-01] | 4.22 | -4.3643 | 43.2 |  |
| CC(C)(C)c1ccc(NC(=O)OC[C@H]2C[C@@H]3CCN2C[C@@H]3c2cc(C3CCCC3)nc(-c3ccncc3)n2)cc1 [NCGC00391636-01] | 2.11 | -4.3643 | 43.2 |  |
| CCCCNc1cc(C)nc(NCc2ccccc2)n1 [MLS000078573-01] | 9.44 | -4.4643 | 34.3 |  |
| COc1cc2nc(N3CCN(c4cc(C)ccc4C)CC3)nc(N)c2cc1OC.Cl [MLS001199642-01] | 6.68 | -4.3643 | 43.2 |  |
| Cc1ccc(C)c(N2CCN(CCCNC(=O)c3cnn(-c4cccc(Cl)c4)c3C3CCN(C(=O)OC(C)(C)C)CC3)CC2)c1 [NCGC00126914-01] | 8.41 | -4.3643 | 43.2 |  |
| O=C(Nc1ccc([C@H]2OCC(=O)N(Cc3ccncc3)[C@@H]2CO)cc1)c1ccc(C(F)(F)F)cc1 [NCGC00395114-01] | 16.8 | -4.5643 | 27.3 |  |
| O=C(c1cc(NC(=O)C23CC4CC(CC(C4)C2)C3)cc(NC(=O)C23CC4CC(CC(C4)C2)C3)c1)N1CCCCC1 [MLS000549502-01] | 5.96 | -4.3643 | 43.2 |  |
